Source: patent US20220331416A1, “COMBINED EXPRESSION OF A CHIMERIC CD3 FUSION PROTEIN AND AN ANTI-CD3-BASED BISPECIFIC T CELL ACTIVATING ELEMENT” (BIOTHEUS (SUZHOU) CO., LTD., priority 2019, published 2022)

How the values were obtained:
[1] = tested on: CAIX CAB-T co-cultured with CAIX+MDA-MB231; assay: Dasatinib inhibition of cytokine release of CAIX CAB-T; type: cell-based; details: activated CAIX CAB-T, co-cultured overnight
[2] = tested on: HER2 CAB-T co-cultured with SKBR3; assay: Dasatinib inhibition of cytokine release of HER2 CAB-T; type: cell-based; details: activated HER2 CAB-T, co-cultured overnight
[3] = tested on: HER2 CAB-T co-cultured with SKBR3; assay: Dasatinib inhibition of killing activity of HER2 CAB-T (LDH); details: E:T 5:1, over 12 hours
[4] = tested on: CAIX CAB-T co-cultured with CALX+MDA-MB231; details: E:T 5:1, over 12 hours
Method: Briefly, 5×10^4 effector cells (CAIX CAB-T or HER2 CAB-T) and 1×10^4 target cells (CALX+MDA-MB231 or SKBR3) were co-cultured with a gradient concentration of dasatinib (100 nM, 50 nM, 25 nM, 12.5 nM, 6.25 nM, 0 nM), Cytotoxicity of CAB-T to its target cells were determined in 2-hour intervals over a period of 12 hours [effector-to-target cell (E:T) ratio, 5:1].

## Cc1nc(Nc2ncc(C(=O)Nc3c(C)cccc3Cl)s2)cc(N2CCN(CCO)CC2)n1 [dasatinib]
[1]
  dose at which IFNγ secretion is inhibited effectively: around 25 nM
  dose at which IL-2 secretion is inhibited effectively: around 25 nM
[2]
  dose at which IFNγ secretion is inhibited effectively: around 25 nM
  dose at which IL-2 secretion is inhibited effectively: around 25 nM
[3]
  dose at which cytotoxicity to target cells is inhibited effectively: around 50 nM
[4]
  dose at which cytotoxicity to target cells is inhibited effectively: around 50 nM
